Measurements from PubChem BioAssay (NCI).
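Following 48 hours of exposure in 96-well plates, responses at five concentrations were used to interpolate endpoints linearly. TGI: total growth inhibition.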

Tests used:
Test in all cases: growth of human tumour cells (NCI), 48 h
[1] = test system: 786-0 renal
[2] = test system: A498 renal
[3] = test system: A549 NSCLC
[4] = test system: ACHN renal
[5] = test system: CAKI-1 renal
[6] = test system: CCRF-CEM leukemia
[7] = test system: COLO 205 colon
[8] = test system: DLD-1 colon
[9] = test system: DMS 114 small cell lung
[10] = test system: EKVX NSCLC
[11] = test system: HCC-2998 colon
[12] = test system: HCT-116 colon
[13] = test system: HCT-15 colon
[14] = test system: HOP-18 NSCLC
[15] = test system: HOP-62 NSCLC
[16] = test system: HT29 colon
[17] = test system: IGROV1 ovarian
[18] = test system: K-562 leukemia
[19] = test system: KM12 colon
[20] = test system: KM20L2 colon
[21] = test system: LXFL 529 NSCLC
[22] = test system: M14 melanoma
[23] = test system: M19-MEL melanoma
[24] = test system: MALME-3M melanoma
[25] = test system: MOLT-4 leukemia
[26] = test system: NCI-H23 lung
[27] = test system: NCI-H460 lung
[28] = test system: NCI-H522 lung
[29] = test system: OVCAR-3 ovarian
[30] = test system: OVCAR-4 ovarian
[31] = test system: OVCAR-5 ovarian
[32] = test system: OVCAR-8 ovarian
[33] = test system: RPMI-8226 leukemia
[34] = test system: SF-268 CNS
[35] = test system: SF-295 CNS
[36] = test system: SF-539 CNS
[37] = test system: SK-MEL-2 melanoma
[38] = test system: SK-MEL-28 melanoma
[39] = test system: SK-MEL-5 melanoma
[40] = test system: SK-OV-3 ovarian
[41] = test system: SN12C renal
[42] = test system: SNB-19 CNS
[43] = test system: SNB-75 CNS
[44] = test system: SNB-78 CNS
[45] = test system: SW-620 colon
[46] = test system: TK-10 renal
[47] = test system: U251 CNS
[48] = test system: UACC-257 melanoma
[49] = test system: UACC-62 melanoma
[50] = test system: UO-31 renal
[51] = test system: XF 498 CNS
[52] = test system: HL-60(TB) leukemia
[53] = test system: LOX IMVI melanoma
[54] = test system: NCI-H226 lung
[55] = test system: RXF-631 renal
[56] = test system: SR leukemia

COc1ccc(/C=C2\CCc3ccccc3C2=O)cc1OC
TGI [1]: > 100 µM
TGI [2]: > 100 µM
TGI [3]: > 100 µM
TGI [4]: > 100 µM
TGI [5]: > 100 µM
TGI [6]: > 100 µM
TGI [7]: 47.2 µM
TGI [8]: 56.4 µM
TGI [9]: 47.1 µM
TGI [10]: > 100 µM
TGI [11]: > 100 µM
TGI [12]: 36.7 µM
TGI [13]: 45.5 µM
TGI [14]: > 100 µM
TGI [15]: > 100 µM
TGI [16]: > 100 µM
TGI [17]: > 100 µM
TGI [18]: > 100 µM
TGI [19]: 39.5 µM
TGI [20]: > 100 µM
TGI [21]: > 100 µM
TGI [22]: 50 µM
TGI [23]: > 100 µM
TGI [24]: > 100 µM
TGI [25]: 71.3 µM
TGI [26]: > 100 µM
TGI [27]: > 100 µM
TGI [28]: 47 µM
TGI [29]: > 100 µM
TGI [30]: 79.6 µM
TGI [31]: > 100 µM
TGI [32]: > 100 µM
TGI [33]: 64.8 µM
TGI [34]: 62.6 µM
TGI [35]: 95.9 µM
TGI [36]: 65.9 µM
TGI [37]: 83.9 µM
TGI [38]: 73.2 µM
TGI [39]: 30.9 µM
TGI [40]: 78.9 µM
TGI [41]: 95.7 µM
TGI [42]: > 100 µM
TGI [43]: 76.9 µM
TGI [44]: > 100 µM
TGI [45]: 82.5 µM
TGI [46]: > 100 µM
TGI [47]: > 100 µM
TGI [48]: 43.1 µM
TGI [49]: 34.1 µM
TGI [50]: > 100 µM
TGI [51]: 56.5 µM

CCOC(=O)C1=C(C)N(C2OC(COC(C)=O)C(OC(C)=O)C(OC(C)=O)C2OC(C)=O)C(=O)NC1c1ccccc1 (centres undefined)
TGI [2]: > 100 µM
TGI [3]: > 100 µM
TGI [4]: > 100 µM
TGI [5]: > 100 µM
TGI [6]: > 100 µM
TGI [7]: > 100 µM
TGI [8]: > 100 µM
TGI [9]: > 100 µM
TGI [10]: > 100 µM
TGI [11]: > 100 µM
TGI [12]: > 100 µM
TGI [13]: > 100 µM
TGI [52]: > 100 µM
TGI [14]: > 100 µM
TGI [15]: > 100 µM
TGI [16]: > 100 µM
TGI [17]: > 100 µM
TGI [18]: > 100 µM
TGI [19]: > 100 µM
TGI [20]: > 100 µM
TGI [53]: > 100 µM
TGI [21]: > 100 µM
TGI [22]: > 100 µM
TGI [23]: > 100 µM
TGI [24]: > 100 µM
TGI [25]: > 100 µM
TGI [54]: > 100 µM
TGI [26]: > 100 µM
TGI [27]: > 100 µM
TGI [28]: 63.4 µM
TGI [29]: > 100 µM
TGI [30]: > 100 µM
TGI [31]: > 100 µM
TGI [32]: > 100 µM
TGI [33]: > 100 µM
TGI [55]: > 100 µM
TGI [34]: > 100 µM
TGI [35]: > 100 µM
TGI [36]: > 100 µM
TGI [37]: > 100 µM
TGI [38]: > 100 µM
TGI [39]: > 100 µM
TGI [40]: > 100 µM
TGI [41]: > 100 µM
TGI [42]: > 100 µM
TGI [43]: > 100 µM
TGI [44]: > 100 µM
TGI [56]: > 100 µM
TGI [45]: > 100 µM
TGI [47]: > 100 µM
TGI [48]: > 100 µM
TGI [49]: > 100 µM
TGI [50]: > 100 µM
